Source: article PMC12220852, “An adamantane‐based ligand as a novel chemical tool for thermosensory TRPM8 channel therapeutic modulation” (The Febs Journal, 2025)

Experiments:
hTRPA1 = molecular target: T1, hTRPA1 (Homo sapiens, UniProt O75762); test: Whole-cell patch-clamp of AITC-evoked currents in HEK293 cells expressing hTRPA1; type: cell-based; conditions: −60 mV
T1 construct: expressed in transfected cells; host or cells: HEK293 (transient, Lipofectamine 3000)
Experimental: To evaluate receptor selectivity, we investigated the activity of compound 23 on recombinant hTRPV1 and hTRPA1 channels recombinantly expressed in HEK293 cells (Fig. 4). We choose these thermosensory channels because of their structural similarity and expression in peripheral nociceptive terminals. In addition, some ligand cross‐interaction within these channels has been reported.
Recording through patch‐clamp techniques was performed on HEK293 cells cultured in DMEM GlutaMax with 10% FBS and 1% P/S. The cell lines were authenticated following the standardization of STR Profiling guidelines (ANSI/ATCC ASN‐0002‐2022) using the CLA Identifier Plus PCR Amplification Kit (Thermo Fisher‐A44660) to analyze 16 highly variant human STRs. The cells were confirmed to be mycoplasma‐free. These cells were transiently transfected with plasmids encoding hTRPV1, hTRPM8, or hTRPA1 using Lipofectamine 3000. Transfected cells were seeded on 12 mm Ø glass coverslips treated with poly‐L‐lysine solution and recorded 2 days post‐transfection. The intracellular pipette solution included (in mM) 150 NaCl, 3 MgCl2, 5 EGTA, and 10 HEPES, pH 7.2 with CsOH, while the extracellular solution contained (in mM) 150 NaCl, 6 CsCl, 1 MgCl2, 1.5 CaCl2, 10 glucose, and 10 HEPES, pH 7.4 with NaOH. An EPC‐10 amplifier with Patchmaster software was used in whole‐cell experiments. Patch pipettes, created from thin‐wall borosilicate capillary glass tubing, were pulled with a Micropipette puller to a final resistance of 2–8 MΩ when filled with the internal solution. Recordings were acquired at 10 kHz and low‐pass filtered at 3 kHz, discarding recordings with leak currents > 200pA or series resistance > 20 MΩ. In voltage‐clamp recordings, cells were held at a constant potential, and the application of modulators was carried out using a gravity‐driven perfusion system. […] Leak currents were not subtracted, and conductance was calculated using the equation: G = I/(V − V r), where I is the measured ionic current, V is the applied voltage, and V r is the reversal potential that for the ionic conditions used was set to 0 mV. […]

[1] = test system: AITC‐induced excitability in murine nociceptors; test: Multielectrode array (MEA): AITC-induced firing in nociceptors; type: cell-based; conditions: 5 μM compound, 100 μM AITC, P2/P1
Experimental: Additionally, we investigated the effect of compound 23 on capsaicin and AITC‐induced excitability in murine nociceptors. Employing an IC50 value of 1 μM for TRPV1 and 5 μM for TRPA1 of firing inhibition by compound 23 (Fig. 4), we interrogated its ability to modulate neuronal excitability. As for TRPM8, our experimental design involved a protocol of dual agonist pulses interspersed with a washing pulse to minimize agonist‐induced channel desensitization. Compound 23 was administered 1 min prior to and during the second agonist pulse.
Primary cultures of neonatal dorsal root ganglia were used for multielectrode array (MEA) and patch‐clamp experiments following established methodologies previously described. Neonatal dorsal root ganglia (DRGs) were obtained from Wistar rats (3–5 days old) and were isolated and digested with 0.25% (w/v) collagenase (type IA) in DMEM GlutaMax with 1% (v/v) penicillin/streptomycin (P/S) solution for 1 h at 37 °C in a 5% CO2 Thermo Scientific incubator. Following digestion, DRGs were mechanically dissociated and passed through a 100 μm cell strainer to obtain single‐cell suspensions. Suspensions were washed with DMEM GlutaMax with 10% (v/v) fetal bovine serum (FBS) and 1% (v/v) penicillin/streptomycin (P/S). Cells were then seeded in microelectrode array chambers coated with poly‐L‐lysine (8.3 μg·mL^−1) and laminin (5 μg·mL^−1). […]

T1 sequence (O75762 whole entry): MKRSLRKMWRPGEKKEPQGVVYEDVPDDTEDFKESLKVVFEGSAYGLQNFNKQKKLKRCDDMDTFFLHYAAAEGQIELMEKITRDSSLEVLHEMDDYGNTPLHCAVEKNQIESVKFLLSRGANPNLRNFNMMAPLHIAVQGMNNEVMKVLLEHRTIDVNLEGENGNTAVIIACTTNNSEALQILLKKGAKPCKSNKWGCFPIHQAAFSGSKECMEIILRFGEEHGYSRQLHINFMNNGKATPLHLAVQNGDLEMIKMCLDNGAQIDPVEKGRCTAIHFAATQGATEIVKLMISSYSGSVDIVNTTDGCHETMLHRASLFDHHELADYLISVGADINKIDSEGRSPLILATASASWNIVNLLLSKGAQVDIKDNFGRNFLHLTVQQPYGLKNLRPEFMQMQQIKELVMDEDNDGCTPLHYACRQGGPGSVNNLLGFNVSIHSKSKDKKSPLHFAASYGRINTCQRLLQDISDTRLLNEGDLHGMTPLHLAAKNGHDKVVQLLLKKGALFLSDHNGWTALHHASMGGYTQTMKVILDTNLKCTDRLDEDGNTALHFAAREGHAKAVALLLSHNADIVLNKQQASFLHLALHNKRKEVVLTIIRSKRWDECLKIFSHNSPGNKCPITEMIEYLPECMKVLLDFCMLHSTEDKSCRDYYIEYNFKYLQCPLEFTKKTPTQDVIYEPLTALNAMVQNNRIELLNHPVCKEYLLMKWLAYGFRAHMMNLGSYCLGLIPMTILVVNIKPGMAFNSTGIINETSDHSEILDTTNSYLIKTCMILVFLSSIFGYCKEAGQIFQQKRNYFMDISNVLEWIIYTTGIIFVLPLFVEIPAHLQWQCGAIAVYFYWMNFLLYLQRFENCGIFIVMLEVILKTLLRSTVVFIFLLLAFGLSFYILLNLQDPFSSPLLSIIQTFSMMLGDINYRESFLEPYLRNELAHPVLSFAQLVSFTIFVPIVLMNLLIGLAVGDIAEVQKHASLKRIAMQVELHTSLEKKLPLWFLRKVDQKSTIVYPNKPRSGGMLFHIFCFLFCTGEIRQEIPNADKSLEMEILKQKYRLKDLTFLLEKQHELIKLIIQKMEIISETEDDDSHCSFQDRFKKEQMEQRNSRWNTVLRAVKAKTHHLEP

## O=C(COC(=O)c1ccccc1-c1ccccc1)NC12CC3CC(CC(C3)C1)C2 [Compound 23, 2‐((3S,5S,7S)‐adamantan‐1‐ylamino)‐2‐oxoethyl [1,1′‐biphenyl]‐2‐carboxylate]
hTRPA1; 5 μM compound, 60 μM AITC
  block of hTRPA1‐evoked (AITC) current: ≈ 60%
hTRPA1; AITC-evoked current, n = 8, read-out: IC50 of hTRPA1 current blockade
  IC50: 3.04 ± 2.01 µM
[1]
  attenuation of AITC‐induced firing: 40%
